Data as given in US20240109852A1, “Ferroptosis-HDAC Inhibitor Hybrid Anticancer Agents” (The University of Toledo, priority 2022, published 2024).
Where two headings read alike, the source gives them in different places.

What was measured:
[1] = test system: hTERT-immortalized RPE cells (retinal pigment epithelial cells); experiment: Cell viability assay (methylene blue staining), RPE normal cells; assay type: cell-based, human
Protocol: (§2) Cell viability was assessed using methylene blue staining: cells were plated at 5000/well in 96 well plates (n=3) respectively and treated the next day. Three days after treatment cells were fixed/stained in methylene blue saturated in 50% ethanol for 30 min at RT. Plates were washed with excess water to wash off extra dye.

NCI-H522 cells = experiment: Time-lapse microscopy of cell death in NCI-H522 cells; assay type: cell-based, human; conditions: for time from initiation of ferroptosis until most/all cells were dead: CETZOLE-1 20 μM (most cells), HY-1 5 μM (all cells); for time of initiation of ferroptosis after treatment: CETZOLE-1 20 μM, HY-1 5 μM
Protocol: For time lapse imaging, NCI-H522 cells were plated at ˜70% density and left overnight to adhere and pre-equilibrate to 10% CO2. The next day cells were treated with DMSO or inhibitors, and the flask was maintained sealed. Flasks were placed on a 37° C. heated stage on an inverted microscope. Images were captured every 12 min and for a total of 300 images using a ×40 microscope objective and an Olympus C740 digital camera controlled by AmScope software. Image analysis was done using Image J. For the Kaplan-Maier graphs at least 100 cells were counted and the event of cell death was measured on a time frame of either 1 h or 0.2 h.

[2] = test system: SH-SY5Y cell line (human neuroblastoma); experiment: MTT cell viability assay on SH-SY5Y neuronal cells; assay type: cell-based; conditions: for effect on neuronal cells (neurotoxicity), SH-SY5Y viability: 0.5×IC50, 1×IC50, 2×IC50 of the corresponding control on H522
Protocol: Human neuroblastoma cells (SH-SY5Y) were grown on poly-D-lysine coated plates and cultured in DMEM/F12 medium (HyClone, Thermo Scientific) containing 10% fetal bovine serum and 1% penicillin-streptomycin. Cells were maintained in a 37° C. incubator with a 5% CO2 atmosphere. Cells were seeded at a density of 15,000 cells in 96 well plates for 36 hr before treatment of drugs. […] G4102) according to the manufacturer's instructions. Cells were treated with amide series analogs for 24 hrs. Briefly, the cells were incubated with MTT reagent for 2 h at 37° C. incubator. Then, the solubilization/stop solution was added to solubilize the formazan products, incubated for 1 hr, and absorbance at 570 was measured using micro-plate reader (SynergyH1, BioTek, USA). DMSO was used a vehicle control. The experimental data represent the means±SD (*P<0.05) of triplicates from three separate experiments. The statistical significance was determined by one-way ANOVA and significant differences P<0.05, P<0.01, P<0.001, and P<0.0001 are symbolized as *, **, ***, and ****, respectively.

[3] = test system: PC-12 (pheochromocytoma) cells; experiment: MTT cytotoxicity on undifferentiated and differentiated PC-12 cells; assay type: cell-based; conditions: both non-differentiated and NGF-differentiated states
Protocol: Pheochromocytoma (PC-12) cells were grown on poly-D-lysine coated plates and cultured in DMEM/F12 medium (HyClone, Thermo Scientific) containing 5% fetal bovine serum, 5% horse serum, and 1% penicillin-streptomycin. Cells were maintained in a 37° C. incubator with a 5% CO2 atmosphere. Cells were seeded at a density of 15,000 cells per well in 96 well plates for 36 hr before treatment with the test compounds. The MTT assay was performed after 24 hr of treatment.
Pheochromocytoma (PC-12) cells were seeded on poly-D-lysine coated plates containing neuron differentiation medium (100 ng nerve growth factor, DMEM/F12, 5% fetal bovine serum, 5% horse serum, and 1% penicillin-streptomycin) and grown for 5 days to differentiate to neurons. Cells were maintained in a 37° C. incubator with a 5% CO2 atmosphere. Cells were trypsinized, and seeded at a density of 15,000 cells/well in 96 well plates with neuron differentiation medium for 36 hr before treatment with the test compounds. The MTT assay was performed after 24 hr of treatment.

[4] = test system: NCI-60 human tumor cell lines; experiment: NCI-60 five dose assay, whole panel; assay type: cell-based
[5] = test system: WI-38 cells (normal human lung fibroblasts); experiment: Cell viability assay (methylene blue staining), WI-38 normal cells; assay type: cell-based; conditions: concentration of therapeutic relevance (2 μM), mesenchymal system
Protocol: as §2

[6] = test system: lipid peroxides in NCI-H522 cells; experiment: C11-BODIPY lipid peroxidation assay (flow cytometry); assay type: cell-based, human; conditions: NCI-H522, 10 μM, within 6 hours of treatment
Protocol: NCI-H522 cells (˜70% density) were plated on 7 cm dishes and let overnight to adhere. […] After 6 h, cells were washed with 1×PBS and collected by trypsinization and centrifugation. The cells were washed once with 1×PBS and resuspended in PBS containing 2% FBS. Cells were analyzed using a BD LSR Fortessa FACScanner and FlowJo software. For each sample 20×10^3 cells were analyzed.

[7] = test system: NCI-60 human tumor cell lines; experiment: NCI-60 one dose assay, whole panel; assay type: cell-based; conditions: compared to other hybrids, HDAC controls and SAHA
[8] = test system: RPMI-8226 (leukemia cell line); experiment: NCI-60 five dose assay, RPMI-8226; assay type: cell-based; conditions: Homo sapiens, RPMI-8226, read-out: GI50, RPMI-8226
[9] = test system: NCI-H23 (NSC lung cancer cell line); experiment: NCI-60 five dose assay, NCI-H23; assay type: cell-based; conditions: Homo sapiens
[10] = test system: SF-539 cell line (CNS cancer); experiment: NCI-60 five dose assay, SF-539; assay type: cell-based; conditions: Homo sapiens
[11] = test system: LOXIMVI (melanoma cell line); experiment: NCI-60 five dose assay, LOXIMVI; assay type: cell-based; conditions: Homo sapiens, LOX IMVI, read-out: GI50, LOXIMVI
[12] = test system: IGROV-1 (ovarian cancer cell line); experiment: NCI-60 five dose assay, IGROV-1; assay type: cell-based; conditions: Homo sapiens
[13] = test system: PC-3 (prostate cancer cell line); experiment: NCI-60 five dose assay, PC-3; assay type: cell-based; conditions: Homo sapiens, read-out: GI50, PC-3
[14] = test system: DU-145 (prostate cancer cell line); experiment: NCI-60 five dose assay, DU-145; assay type: cell-based; conditions: Homo sapiens
[15] = test system: NCI-H522 human lung cancer cells; experiment: Cell viability assay (methylene blue staining), NCI-H522; assay type: cell-based; conditions: NCI-H522, 72 h, read-out: IC50 ± SD (n = 3) on NCI-H522 cell line
Protocol: as §2

[16] = test system: HCT116 human colorectal carcinoma cells; experiment: Cell viability assay (methylene blue staining), HCT-116; assay type: cell-based; conditions: HCT-116, 72 h, read-out: IC50 ± SD (n = 3) on HCT-116 cell line
Protocol: as §2

[17] = test system: acetyl-H3 (K9) (histones, HDAC class I substrate); experiment: Western blot, acetyl-H3 (K9) in NCI-H522 cells; assay type: cell-based, human; conditions: NCI-H522, concentration of 5 μM
From the text: (§1) Bound antibodies were detected using enhanced chemiluminescence (Biorad).

[18] = test system: acetyl tubulin (class II, HDAC-6 substrate); experiment: Western blot, acetyl tubulin in NCI-H522 cells; assay type: cell-based, human; conditions: NCI-H522, concentration of 5 μM
From the text: as §1

[19] = test system: HS578 (breast cancer cell line); experiment: NCI-60 five dose assay, HS578; assay type: cell-based; conditions: Homo sapiens
[20] = test system: NCI-H23 cell line (NSC-Lung cancer); conditions: one dose; SAHA data from the public data base of NCI; cited from earlier work
[21] = test system: DU-145 cells (prostate cancer); conditions: one dose; SAHA data from the public data base of NCI; cited from earlier work

With `C#Cc1nc(C2=C(C)C(O)CC2)cs1` (centres unmarked) [CETZOLE-1, reference compound] the IC50 ([1]; normal RPE epithelial cells, FBS media (FIGS. 11A, 11C), read-out: IC50 on RPE (selectivity study)) was greater than 30000 nM, the “time from initiation of ferroptosis until most/all cells were dead” value (NCI-H522 cells) was no more than 8 h and the “time of initiation of ferroptosis after treatment” value (NCI-H522 cells) was “approximately 12 hours”.
In the case of `C#Cc1nc(C(=O)NCCCCCCC(=O)OC)cs1` [FC-1, Methyl 7-(2-ethynylthiazole-4-carboxamido)heptanoate], the “effect on neuronal cells (neurotoxicity), SH-SY5Y viability” value (from here on “effect on neuronal cells (neurotoxicity)”) [2] is reported as “significant neurotoxicity” and the “sensitivity of differentiated and undifferentiated PC-12 cells” value [3] is reported as “resistant”.
With `O=C(CCCCCCNC(=O)c1csc(Br)n1)NO` [HC-1, 2-Bromo-N-(7-(hydroxyamino)-7-oxoheptyl)thiazole-4-carboxamide] the “effect on neuronal cells (neurotoxicity)” value [2] was “very mild toxicity” and the GI50 ([4]; read-out: average GI50) was 1510 nM.
With `C#Cc1nc(C(=O)NCCCCCCC(=O)NO)cs1` [HY-1, 2-Ethynyl-N-(7-(hydroxyamino)-7-oxoheptyl)thiazole-4-carboxamide] the “toxic effects on normal cells (WI-38)” value [5] was “no toxic effects on normal cells”, the “toxicity on normal cells (RPE)” value ([1]; concentration of therapeutic relevance (2 μM), epithelial system) was “no toxicity was observed on the normal cells” and the “neurotoxic effects, SH-SY5Y viability” value ([2]; concentrations of therapeutic relevance (2.32 μM)) was “no neurotoxic effects”. For the same compound, the “sensitivity of differentiated and undifferentiated PC-12 cells” value [3] was “behaved like the HDAC control HC-1”, the “lipid peroxide levels (oxidized C11-BODIPY 581/591)” value [6] was “increased levels of lipid peroxides” and the “time from initiation of ferroptosis until most/all cells were dead” value (NCI-H522 cells) was no more than 2 h. The “time of initiation of ferroptosis after treatment” value (NCI-H522 cells) was 8 h, the “cytotoxicity profile in the NCI-60 screen” value [7] was “best cytotoxicity profile” and the GI50 ([4]; read-out: GI50 values as low as) was no less than 20 nM. It also gave a GI50 ([4]; read-out: average GI50) of 850 nM, a GI50 [8] of 350 nM and a GI50 ([9]; NCI-H23, read-out: GI50, NCI-H23) of 780 nM. It also gave a GI50 ([10]; SF-539, read-out: GI50, SF-539) of 1000 nM, a GI50 [11] of 20 nM and a GI50 ([12]; IGROV-1, read-out: GI50, IGROV-1) of 570 nM. The GI50 [13] was 2000 nM and the GI50 ([14]; DU-145, read-out: GI50, DU-145) was 360 nM.
`C#Cc1nc(/C=C\CCCCCC(=O)NO)cs1` [HY-2, (Z)-8-(2-ethynylthiazol-4-yl)-N-hydroxyoct-7-enamide] gave an IC50 [15] of 1070 nM, an IC50 [16] of 1190 nM and a GI50 ([4]; read-out: average GI50) of 2180 nM.
With `C#Cc1nc(/C=C/CCCCCC(=O)NO)cs1` [HY-3, (E)-8-(2-ethynylthiazol-4-yl)-N-hydroxyoct-7-enamide] the IC50 [15] was 1590 nM, the IC50 [16] was 4960 nM and the GI50 ([4]; read-out: average GI50) was 3390 nM.
In the case of `C#Cc1nc(/C=C/C=C/C(=O)NO)cs1` [HY-4, (2E,4E)-5-(2-ethynylthiazol-4-yl)-N-hydroxypenta-2,4-dienamide], the “effect on neuronal cells (neurotoxicity)” value [2] is reported as “not showing attenuated neurotoxicity” and the “cytotoxicity profile in the NCI-60 screen” value [7] is reported as “worst cytotoxicity profile”.
In the case of `C#Cc1nc(/C=C/C(=O)NO)cs1` [HY-5, (E)-3-(2-ethynylthiazol-4-yl)-N-hydroxyacrylamide], the “H3 hyperacetylation at 5 μM” value [17] is reported as “did not show any H3 hyperacetylation”, the “tubulin hyperacetylation at 5 μM” value [18] is reported as “tubulin hyperacetylation” and the GI50 ([4]; read-out: average GI50) is reported as 2470 nM.
In the case of `COC(=O)CCCCCCNC(=O)c1csc(Br)n1` [NC-1, Methyl 7-(2-bromothiazole-4-carboxamido)heptanoate], the “effect on neuronal cells (neurotoxicity)” value [2] is reported as “no effect”.
For `O=C(CCCCCCC(=O)Nc1ccccc1)NO` [SAHA], the “time after treatment at which cells were still alive” value (NCI-H522 cells; SAHA 5 μM) was no less than 60 h, the GI50 ([4]; five dose assay, mean over approximately sixty cell lines, read-out: average GI50) was 1210 nM and the GI50 ([9]; NCI-H23, five dose assay, read-out: GI50, NCI-H23) was 2000 nM. The GI50 ([10]; SF-539, five dose assay, read-out: GI50, SF-539) was 2000 nM, the GI50 ([11]; five dose assay) was 1250 nM and the GI50 ([12]; IGROV-1, five dose assay, read-out: GI50, IGROV-1) was 2000 nM. The GI50 ([13]; five dose assay) was 1580 nM, the GI50 ([14]; DU-145, five dose assay, read-out: GI50, DU-145) was 1250 nM and the GI50 [19] was 2000 nM. For the same compound, the “Growth %, NCI-H23 (NCI public data base)” value [20] was 3.30% and the “Growth %, DU-145 (NCI public data base)” value [21] was 3.5%.
